How the values were obtained:
[1] = test system: Avena sativa; assay: Inhibition of Avena sativa var. Zenshin seed germination assessed as coleoptile length at 1 uM after 6 days (reference value: 9.5 cm); format: functional
[2] = test system: Avena sativa; assay: Inhibition of Avena sativa var. Zenshin seed germination assessed as root length at 1 uM after 6 days (reference value: 7 cm); format: functional

SMILES	Activity [1]	Activity [2]
O=C(NCSc1ccccc1)OCCc1ccccc1 [PHENETHYL PHENYLTHIOMETHYLCARBAMATE]	0 cm	0 cm
O=C(Nc1ccc(Cl)cc1)Oc1ccccc1 [PHENYL 4-CHLOROPHENYLCARBAMATE]	8.1 cm	4.1 cm
CC(C)OC(=O)NCSc1ccccc1 [ISOPROPYL PHENYLTHIOMETHYLCARBAMATE]	0 cm	0 cm
COC(=O)NCSc1ccccc1 [METHYL PHENYLTHIOMETHYLCARBAMATE]	0 cm	0 cm
CC(C)OC(=O)Nc1cccc(Cl)c1 [CHLORPROPHAM]	0 cm	0 cm
O=C(NCSc1ccccc1)OCCCc1ccccc1 [3-PHENYLPROPYL PHENYLTHIOMETHYLCARBAMATE]	4.6 cm	3.9 cm
O=C(Nc1ccccc1)OCc1ccccc1 [BENZYL PHENYLCARBAMATE]	2.8 cm	1.2 cm
COc1ccc(COC(=O)NCSc2ccccc2)cc1 [4-METHOXYBENZYL PHENYLTHIOMETHYLCARBAMATE]	1.4 cm	0.9 cm
CCCOC(=O)NCSc1ccccc1 [PROPYL PHENYLTHIOMETHYLCARBAMATE]	1.7 cm	1.4 cm
CCOC(=O)NCSc1ccccc1 [ETHYL PHENYLTHIOMETHYLCARBAMATE]	0.8 cm	1 cm
CCCCOC(=O)NCSc1ccccc1 [BUTYL PHENYLTHIOMETHYLCARBAMATE]	2.6 cm	3.4 cm
Cc1cccc(NC(=O)Oc2ccccc2)c1 [PHENYL M-TOLYLCARBAMATE]	5.6 cm	4.4 cm
O=C(Nc1ccccc1)OCCCc1ccccc1 [3-PHENYLPROPYL PHENYLCARBAMATE]	3.5 cm	1.9 cm
O=C(Nc1ccccc1)OCCCCc1ccccc1 [4-PHENYLBUTYL PHENYLCARBAMATE]	4.9 cm	1.2 cm
O=C(NCSc1ccccc1)OC/C=C/c1ccccc1 [CINNAMYL PHENYLTHIOMETHYLCARBAMATE]	2.2 cm	2.6 cm
O=C(Nc1ccccc1)OC/C=C/c1ccccc1 [CINNAMYL PHENYLCARBAMATE]	3.4 cm	0.4 cm
COc1ccc(NC(=O)Oc2ccccc2)cc1 [PHENYL 4-METHOXYPHENYLCARBAMATE]	8.3 cm	7.7 cm
O=C(Nc1ccccc1)Oc1ccccc1 [PHENYL PHENYLCARBAMATE]	4.7 cm	1.9 cm
O=C(NCCc1ccccc1)OCc1ccccc1 [BENZYL PHENETHYLCARBAMATE]	5.2 cm	2.8 cm
O=C(NCSc1ccccc1)OCc1ccccc1 [BENZYL PHENYLTHIOMETHYLCARBAMATE]	0 cm	0 cm
O=C(Nc1ccc(F)cc1)Oc1ccccc1 [PHENYL 4-FLUOROPHENYLCARBAMATE]	6.4 cm	4.8 cm
O=C(NCSc1ccccc1)Oc1ccc(Cl)cc1Cl [2,4-DICHLOROPHENYL PHENYLTHIOMETHYLCARBAMATE]	0 cm	0 cm
O=C(Nc1ccccc1)OCCCCCc1ccccc1 [5-PHENYLPENTYL PHENYLCARBAMATE]	6.6 cm	2.1 cm
O=C(NCSc1ccccc1)Oc1ccccc1 [PHENYL PHENYLTHIOMETHYLCARBAMATE]	0 cm	0 cm
O=C(Nc1ccccc1)OCCc1ccccc1 [PHENETHYL PHENYLCARBAMATE]	0.3 cm	0.2 cm

From ChEMBL document CHEMBL3044750, “Preparation of N-substituted aryl and alkyl carbamates and their inhibitory effect on oat seed germination” (2002)
